Assay results reported in patent US8088574B2, “Poly(A) polymerase” (Wisconsin Alumni Research Foundation, priority 2007, dated 2012).
Entries after “also recorded” stand apart in the source; their conditions may differ.

Assays:
[1] = tested on: T1, Star-PAP complex-associated kinase activity (CKI); assay: in vitro protein kinase assay of purified FLAG-Star-PAP complex: phosphorylation of Star-PAP by the complex-associated kinase activity; type: biochemical, Human; settings: for phosphorylation of Star-PAP by the complex-associated kinase activity: inhibitor 0.1-100 μM, 45 minutes on ice before ATP
T1 construct: other: PI4,5P2 micelles, 12.5-100 μM; phosphorylation of Star-PAP by the complex-associated kinase activity; Flag-Star-PAP and FLAG-PAPα were expressed in HEK 293 cells and purified on anti-FLAG M2 resin
Method: Synthetic PI4,5P2 (Echelon Biosciences Inc.) was resuspended in 50 mM Tris-HCL pH 7.9 at 2.5 mM and subjected to bath sonication to form micelles and used at final concentration of 12.5-100 μM.
The kinase assays were performed as described above in section 8 for the Star-PAP complexes. Except for inhibitor studies, all reaction components except ATP were incubated with inhibitors for 45 minutes on ice prior to starting the assay.

[2] = biological target: Star-PAP complex-associated kinase activity (CKI); settings: printed beside inhibitor name/vendor and in FIG. 23 legend; inhibitors used at 0.1-100 μM on FLAG-Star-PAP complex; cited from earlier work
HO-1 mRNA = assay: quantitative real-time PCR of HO-1 mRNA in HEK 293 cells; settings: HEK 293 cells pretreated with CKI inhibitor (IC261 50 μM, CKI-7 250 μM, 2.5 h)
CKIα = biological target: T2, CKIα (Rattus norvegicus, UniProt P97633); assay: in vitro phosphorylation of heat inactivated FLAG-Star-PAP by purified FLAG-CKIα; type: biochemical; settings: 50 μM
T2 construct: made in house; host or cells: HEK 293 cells
T2 sequence (P97633 1-325): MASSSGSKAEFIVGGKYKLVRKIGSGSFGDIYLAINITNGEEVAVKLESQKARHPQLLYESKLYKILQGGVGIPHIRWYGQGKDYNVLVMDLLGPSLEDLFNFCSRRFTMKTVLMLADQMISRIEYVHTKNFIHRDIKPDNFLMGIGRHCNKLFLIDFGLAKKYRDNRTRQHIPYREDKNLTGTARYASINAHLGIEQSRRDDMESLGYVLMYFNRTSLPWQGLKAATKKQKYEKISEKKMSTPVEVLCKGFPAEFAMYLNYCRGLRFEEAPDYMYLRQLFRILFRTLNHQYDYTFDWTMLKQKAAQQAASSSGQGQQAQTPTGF
Method: Flag-Star-PAP and FLAG-PAPα were expressed in HEK 293 cells and purified on anti-FLAG M2 resin. Purified PAP complexes were subject to an in vitro protein kinase assay as follows. Protein kinase assays were performed in 1× kinase buffer (50 mM Tris-HCl pH 7.5, 10 mM MgCl2 and 0.5 mM EGTA). Assays were initiated by the addition of 10 μM ATP and 5 μCi γ^32P ATP to the reaction mix. Substrates included 100 μg/ml of the generic protein kinase substrates myelin basic protein (MBP) or casein. Heat inactivation of the endogenous kinase activity in the Star-PAP complex was destroyed by heating for 15 minutes at 65° C. The Star-PAP purified complex contained protein kinase activity toward both MBP and casein while the PAPα complex contained almost no detectable protein kinase activity (FIG. 19).
Casein Kinase Iα (CKIα), is a protein kinase found in nuclear speckles; moreover, CKIα activity is inhibited by PI4,5P2. […] FLAG proteins were expressed and purified as follows. Human Star-PAP and rat CKIα cDNAs were cloned in to the pFLAG-1 mammalian expression vector (Sigma). […]
Before the phosphorylation assay, endogenous kinase activity in the FLAG complex was destroyed by heat inactivation; no detectable phosphorylation activity was detected after heat inactivation. […]

Star-PAP complex = biological target: T3, Star-PAP complex (Homo sapiens, UniProt Q9H6E5, D66G); assay: PAP assay with Star-PAP complex purified from stably expressing HEK-293 cells treated with tBHQ; type: cell-based
T3 construct: made in house; host or cells: HEK-293 cells stably expressing FLAG-Star-PAP, treated with tBHQ before purification
T3 sequence (Q9H6E5 1-874 D66G): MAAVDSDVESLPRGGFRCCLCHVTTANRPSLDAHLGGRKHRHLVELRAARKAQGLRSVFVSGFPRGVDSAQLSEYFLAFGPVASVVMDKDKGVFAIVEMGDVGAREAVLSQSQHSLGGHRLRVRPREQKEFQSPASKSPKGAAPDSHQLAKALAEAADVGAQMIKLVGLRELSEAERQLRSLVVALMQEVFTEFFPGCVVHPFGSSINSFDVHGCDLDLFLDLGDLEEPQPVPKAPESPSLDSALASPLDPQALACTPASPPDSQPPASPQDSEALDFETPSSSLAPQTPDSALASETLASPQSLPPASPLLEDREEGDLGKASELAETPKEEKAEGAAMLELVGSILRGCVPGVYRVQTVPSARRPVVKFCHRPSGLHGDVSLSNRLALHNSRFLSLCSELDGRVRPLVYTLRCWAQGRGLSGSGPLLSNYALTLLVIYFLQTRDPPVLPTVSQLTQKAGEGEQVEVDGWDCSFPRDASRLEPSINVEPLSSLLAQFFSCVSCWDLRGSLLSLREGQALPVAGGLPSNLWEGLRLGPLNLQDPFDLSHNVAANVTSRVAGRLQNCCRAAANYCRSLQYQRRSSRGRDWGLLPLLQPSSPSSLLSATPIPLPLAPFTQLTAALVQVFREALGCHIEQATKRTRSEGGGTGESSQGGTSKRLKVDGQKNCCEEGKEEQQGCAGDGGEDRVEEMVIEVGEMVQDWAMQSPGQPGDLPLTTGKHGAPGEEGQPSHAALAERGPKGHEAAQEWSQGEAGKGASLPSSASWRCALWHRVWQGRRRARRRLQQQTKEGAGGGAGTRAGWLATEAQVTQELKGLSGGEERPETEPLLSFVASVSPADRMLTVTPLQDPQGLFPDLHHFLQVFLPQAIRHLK
Text: Treatment of cells with tBHQ caused a large increase in Star-PAP complex activity for the initiation of polyadenylation. […] PI4,5P2 produced by PIPKIα in the complex may then control the processivity of Star-PAP, resulting in a lengthened poly(A) tail. In this manner Star-PAP may respond to oxidative stress signals, and potential other signals, to efficiently regulate the 3′ end formation and polyadenylation by the Star-PAP complex.

Star-PAP = biological target: T4, Star-PAP (Homo sapiens, UniProt Q9H6E5, D66G); assay: in vitro poly(A) polymerase assay with Star-PAP; type: biochemical
T4 construct: full length His-Star-PAP was purified over a Ni^++ or glutathione columns; His; T7 tag; made in house; host or cells: E. coli BL21(DE3)
T4 sequence (Q9H6E5 1-874 D66G): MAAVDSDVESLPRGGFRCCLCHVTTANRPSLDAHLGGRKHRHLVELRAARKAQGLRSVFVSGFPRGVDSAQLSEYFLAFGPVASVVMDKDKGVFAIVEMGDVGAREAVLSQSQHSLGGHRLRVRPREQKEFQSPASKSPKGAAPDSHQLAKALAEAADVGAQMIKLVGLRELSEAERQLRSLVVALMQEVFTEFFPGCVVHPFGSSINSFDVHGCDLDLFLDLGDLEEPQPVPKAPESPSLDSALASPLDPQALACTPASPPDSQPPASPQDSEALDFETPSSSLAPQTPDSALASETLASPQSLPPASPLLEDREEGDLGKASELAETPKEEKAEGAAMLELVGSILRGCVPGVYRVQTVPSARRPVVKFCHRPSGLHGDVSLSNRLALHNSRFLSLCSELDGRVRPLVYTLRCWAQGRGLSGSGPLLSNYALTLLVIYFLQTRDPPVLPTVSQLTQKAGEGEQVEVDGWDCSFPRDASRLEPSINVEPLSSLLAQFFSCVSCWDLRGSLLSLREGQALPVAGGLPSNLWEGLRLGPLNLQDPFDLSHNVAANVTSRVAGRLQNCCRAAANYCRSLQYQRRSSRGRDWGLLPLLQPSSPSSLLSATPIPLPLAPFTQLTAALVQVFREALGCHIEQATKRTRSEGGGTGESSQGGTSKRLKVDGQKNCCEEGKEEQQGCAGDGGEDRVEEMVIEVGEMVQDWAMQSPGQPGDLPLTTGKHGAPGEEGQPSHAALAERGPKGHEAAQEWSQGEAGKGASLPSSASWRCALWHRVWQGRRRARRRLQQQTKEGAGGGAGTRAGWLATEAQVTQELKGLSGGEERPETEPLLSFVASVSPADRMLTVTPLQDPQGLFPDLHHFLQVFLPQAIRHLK
Text: The poly(A) polymerase activity of PIP-PAPs such as Star-PAP, natural or artificial variants, homologues or fragments thereof may be tested by methods known in the art. (See e.g., Kyriakopoulou et al., (2001) J Biol Chem, 276:33504-11).
(§1) As another example, a specific 45 nt RNA oligonucleotide (UAGGGA)5A15 (SEQ ID NO: 22) was designed to serve as an RNA substrate in the poly(A) polymerase assay.
Because Star-PAP associates with the PI4,5P2 generating enzyme PIPKIα; the effect of exogenous phosphoinositides on the in vitro poly(A) polymerase activity of Star-PAP was evaluated. Star-PAP was incubated in the presence of various phosphoinositides (PI, PI3P, PI4P, PI5P, PI3,4P2, PI3,5P2, PI4,5P2 and PI3,4,5P3) or buffer only as a control. Following a brief incubation period the remaining components of the assay were added and allowed to react. In the absence of any phosphoinositide species, Star-PAP was able to extend an RNA primer to generate a modest poly(A) tail. In the presence of PI4,5P2 the incorporation of ATP into poly(A) tails was enhanced. […] This effect was specific for PI4,5P2 as all other inositol phospholipids assayed had no effect on Star-PAP activity in this assay.

[3] = biological target: yeast canonical poly(A) polymerase (Saccharomyces cerevisiae, UniProt P29468); assay: in vitro poly(A) polymerase assay with yeast canonical poly(A) polymerase control; type: biochemical; settings: (UAGGGA)5A15 primer
Text: as §1

PAPα = PAPα (Homo sapiens, UniProt P51003); assay: in vitro poly(A) polymerase assay with PAPα; type: biochemical; settings: 50 μM inositol phospholipid micelles
PAPα, sequence (P51003 whole entry): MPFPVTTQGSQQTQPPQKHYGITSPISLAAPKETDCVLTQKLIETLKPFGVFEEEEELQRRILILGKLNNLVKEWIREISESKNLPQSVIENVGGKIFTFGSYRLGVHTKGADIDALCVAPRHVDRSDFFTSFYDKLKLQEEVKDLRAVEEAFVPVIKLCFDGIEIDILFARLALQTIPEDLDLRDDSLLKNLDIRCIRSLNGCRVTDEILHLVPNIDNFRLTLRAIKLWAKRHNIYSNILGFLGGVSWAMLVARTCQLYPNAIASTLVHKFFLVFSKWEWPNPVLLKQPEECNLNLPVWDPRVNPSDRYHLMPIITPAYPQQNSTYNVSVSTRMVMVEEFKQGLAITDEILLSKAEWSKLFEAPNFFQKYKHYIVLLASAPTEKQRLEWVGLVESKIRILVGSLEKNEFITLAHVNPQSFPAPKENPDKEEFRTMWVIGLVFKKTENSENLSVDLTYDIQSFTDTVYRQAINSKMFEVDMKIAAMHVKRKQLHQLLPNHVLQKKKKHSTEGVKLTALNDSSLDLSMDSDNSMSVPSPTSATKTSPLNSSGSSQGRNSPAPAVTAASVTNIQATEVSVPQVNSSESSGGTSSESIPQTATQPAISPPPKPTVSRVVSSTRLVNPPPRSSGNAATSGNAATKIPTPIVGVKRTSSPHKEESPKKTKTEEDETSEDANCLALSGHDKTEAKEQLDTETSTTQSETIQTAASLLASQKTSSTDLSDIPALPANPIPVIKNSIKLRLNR

yeast canonical poly(A) polymerase, sequence (P29468 whole entry): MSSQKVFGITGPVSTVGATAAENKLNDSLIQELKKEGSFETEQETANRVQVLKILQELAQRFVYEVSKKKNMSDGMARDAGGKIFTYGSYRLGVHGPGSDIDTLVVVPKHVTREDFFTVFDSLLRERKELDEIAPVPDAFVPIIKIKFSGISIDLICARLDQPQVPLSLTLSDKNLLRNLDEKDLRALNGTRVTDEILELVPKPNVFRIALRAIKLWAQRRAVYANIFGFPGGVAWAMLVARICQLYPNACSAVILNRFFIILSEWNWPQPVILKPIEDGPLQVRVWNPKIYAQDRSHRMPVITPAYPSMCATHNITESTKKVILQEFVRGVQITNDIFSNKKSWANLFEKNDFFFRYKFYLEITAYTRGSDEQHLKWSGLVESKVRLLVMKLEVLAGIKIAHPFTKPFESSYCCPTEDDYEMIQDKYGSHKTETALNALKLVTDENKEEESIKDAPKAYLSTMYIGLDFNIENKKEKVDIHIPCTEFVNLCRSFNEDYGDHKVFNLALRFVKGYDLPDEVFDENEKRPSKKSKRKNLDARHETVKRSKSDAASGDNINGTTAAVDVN

Molecule | phosphorylation of Star-PAP by the complex-associated kinase activity [1] | IC50 [2] | basal levels of HO-1 mRNA (HO-1 mRNA) | phosphorylation of Star-PAP by CKIα (CKIα) | other results
NCCNS(=O)(=O)c1ccc(Cl)c2ccncc12 [CKI-7] | block the phosphorylation of Star-PAP by the complex-associated kinase activity in a dose dependent fashion | ~6 µM | reduce HO-1 |  | 
COc1cc(OC)c(C=C2C(O)=Nc3ccccc32)c(OC)c1 [IC261] | block the phosphorylation of Star-PAP by the complex-associated kinase activity in a dose dependent fashion | 11 µM | reduce HO-1 | blocked; also recorded: can block CKIα phosphorylation of Star-PAP | 
CC(C)(C)c1cc(O)ccc1O [tBHQ, tert-butylhydroquinone] |  |  |  |  | increase in enzymatic activity of Star-PAP complex over Star-PAP from control cells (Star-PAP complex; cells treated with 100 μM tBHQ): more than 15 fold
cordycepin triphosphate |  |  |  |  | Star-PAP poly(A) polymerase activity with chain terminator (Star-PAP; (UAGGGA)5A15 primer): inhibited in a dose dependent fashion; yeast canonical poly(A) polymerase activity with chain terminator [3]: inhibited in a dose dependent fashion
phosphatidylinositol-4,5-bisphosphate [PI4,5P2] |  |  |  | blocked; also recorded: can block CKIα phosphorylation of Star-PAP | concentration at which phosphorylation of FLAG-Star-PAP was inhibited (as low as) ([1]; PI4,5P2 micelles, 12.5-100 μM): 12.5 µM; effect of phosphoinositide on Star-PAP poly(A) polymerase activity (incorporation of ATP into poly(A) tails) (Star-PAP; 50 μM inositol phospholipid micelles): enhanced; effect of phosphoinositide on PAPα activity (PAPα): no phosphoinositides tested, including PI4,5P2 stimulated the activity of PAPα; Star-PAP processivity (length of the poly(A) tails) (Star-PAP complex; Star-PAP isolated from tBHQ-treated cells, time course): stimulated Star-PAP processivity, increasing the length of the poly(A) tails
Star-PAP: novel PIP-regulated poly(A) polymerase, SEQ ID NO: 2 (protein, listed as Homo sapiens) MAAVDSDVESLPRGGFRCCLCHVTTANRPSLDAHLGGRKHRHLVELRAARKAQGLRSVFVSGFPRGVDSAQLSEYFLAFGPVASVVMDKDKGVFAIVEMGDVGAREAVLSQSQHSLGGHRLRVRPREQKEFQSPASKSPKGAAPDSHQLAKALAEAADVGAQMIKLVGLRELSEAERQLRSLVVALMQEVFTEFFPGCVVHPFGSSINSFDVHGCDLDLFLDLGDLEEPQPVPKAPESPSLDSALASPLDPQALACTPASPPDSQPPASPQDSEALDFETPSSSLAPQTPDSALASETLASPQSLPPASPLLEDREEGDLGKASELAETPKEEKAEGAAMLELVGSILRGCVPGVYRVQTVPSARRPVVKFCHRPSGLHGDVSLSNRLALHNSRFLSLCSELDGRVRPLVYTLRCWAQGRGLSGSGPLLSNYALTLLVIYFLQTRDPPVLPTVSQLTQKAGEGEQVEVDGWDCSFPRDASRLEPSINVEPLSSLLAQFFSCVSCWDLRGSLLSLREGQALPVAGGLPSNLWEGLRLGPLNLQDPFDLSHNVAANVTSRVAGRLQNCCRAAANYCRSLQYQRRSSRGRDWGLLPLLQPSSPSSLLSATPIPLPLAPFTQLTAALVQVFREALGCHIEQATKRTRSEGGGTGESSQGGTSKRLKVDGQKNCCEEGKEEQQGCAGDGGEDRVEEMVIEVGEMVQDWAMQSPGQPGDLPLTTGKHGAPGEEGQPSHAALAERGPKGHEAAQEWSQGEAGKGASLPSSASWRCALWHRVWQGRRRARRRLQQQTKEGAGGGAGTRAGWLATEAQVTQELKGLSGGEERPETEPLLSFVASVSPADRMLTVTPLQDPQGLFPDLHHFLQVFLPQAIRHLK |  |  |  |  | specific poly(A) polymerase activity relative to canonical PAPα (Star-PAP; side-by-side with PAPα): 1.3 fold
